From patent US20210395239A1 (Hoffmann-La Roche Inc., priority 2018, published 2021)
pIC50: −log10 of the molar value.

Experiments:
human TLR8 = molecular target: T1, human TLR8 (Homo sapiens, UniProt Q9NR97); assay: HEK293-Blue-hTLR-8 cells assay (SEAP reporter, R848 stimulation); type: cell-based; details: HEK293-Blue-hTLR8 cells, R848, 20 hrs; read-out: HEK/hTLR8 IC50
T1 construct: host or cells: HEK293 (HEK-Blue hTLR8)
T1 sequence (Q9NR97 27-1041): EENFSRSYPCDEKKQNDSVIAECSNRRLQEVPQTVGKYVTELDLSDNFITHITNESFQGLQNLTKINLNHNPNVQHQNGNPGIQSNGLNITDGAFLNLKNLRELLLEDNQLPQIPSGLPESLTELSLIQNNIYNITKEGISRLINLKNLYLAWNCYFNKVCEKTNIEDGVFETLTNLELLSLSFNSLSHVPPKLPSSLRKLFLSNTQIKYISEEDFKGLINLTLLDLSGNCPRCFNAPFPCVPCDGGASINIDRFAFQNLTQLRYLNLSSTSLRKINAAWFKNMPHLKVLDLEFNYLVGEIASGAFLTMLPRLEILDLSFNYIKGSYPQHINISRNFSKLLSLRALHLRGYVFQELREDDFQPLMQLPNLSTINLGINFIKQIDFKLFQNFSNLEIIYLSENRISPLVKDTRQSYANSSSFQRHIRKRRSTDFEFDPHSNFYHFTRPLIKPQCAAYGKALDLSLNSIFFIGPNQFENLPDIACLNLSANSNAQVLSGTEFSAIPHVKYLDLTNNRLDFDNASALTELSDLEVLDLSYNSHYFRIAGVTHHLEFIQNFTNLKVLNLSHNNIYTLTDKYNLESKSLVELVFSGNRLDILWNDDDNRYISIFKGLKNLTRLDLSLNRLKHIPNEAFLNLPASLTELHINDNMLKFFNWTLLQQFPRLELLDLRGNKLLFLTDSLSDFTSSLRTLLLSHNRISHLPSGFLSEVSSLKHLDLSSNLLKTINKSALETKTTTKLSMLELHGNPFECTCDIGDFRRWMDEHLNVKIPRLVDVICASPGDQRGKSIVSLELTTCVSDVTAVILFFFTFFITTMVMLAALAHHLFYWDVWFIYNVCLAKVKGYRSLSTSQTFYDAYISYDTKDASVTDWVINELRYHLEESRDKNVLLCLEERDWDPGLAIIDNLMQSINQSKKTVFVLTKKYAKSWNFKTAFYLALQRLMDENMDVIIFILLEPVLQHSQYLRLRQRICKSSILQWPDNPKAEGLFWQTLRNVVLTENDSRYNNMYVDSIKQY
Method in brief: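 Antagonism read as reduced R848-induced SEAP reporter secretion, detected by QUANTI-Blue absorbance at 620–655 nm after 2 h. Reporter cells were exposed to compound dilutions in DMEM/10% FBS, 1% DMSO, for 20 h at 37° C.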

CYP2D6 = molecular target: T2, CYP2D6 (Homo sapiens, UniProt P10635); assay: CYP inhibition assay in human liver microsome, CYP2D6; type: in vitro ADME; details: human, human liver microsomes, probe dextromethorphan 5 μM, substrate dextromethorphan 5 μM, second value of 2C9/2D6/3A4
T2 construct: tissue BD-Gentest 452117; host or cells: human liver microsomes
Method in brief: (§1)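 Pooled human liver microsomes with a substrate for each CYP were incubated with compound at 37 °C after NADPH addition, for 5 min (CYP2D6: 10 min), then quenched with acetonitrile containing labelled metabolite standards. Metabolite/internal-standard peak area ratios were measured by RapidFire MS/MS. % inhibition was scaled between DMSO and standard-inhibitor controls.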

CYP3A4 = molecular target: T3, CYP3A4 (Homo sapiens, UniProt P08684); assay: CYP inhibition assay in human liver microsome, CYP3A4; type: in vitro ADME; details: human, human liver microsomes, probe midazolam 5 μM, substrate midazolam 5 μM, third value of 2C9/2D6/3A4
T3 construct: tissue BD-Gentest 452117; host or cells: human liver microsomes
Method in brief: as §1

T3 sequence (P08684 whole entry): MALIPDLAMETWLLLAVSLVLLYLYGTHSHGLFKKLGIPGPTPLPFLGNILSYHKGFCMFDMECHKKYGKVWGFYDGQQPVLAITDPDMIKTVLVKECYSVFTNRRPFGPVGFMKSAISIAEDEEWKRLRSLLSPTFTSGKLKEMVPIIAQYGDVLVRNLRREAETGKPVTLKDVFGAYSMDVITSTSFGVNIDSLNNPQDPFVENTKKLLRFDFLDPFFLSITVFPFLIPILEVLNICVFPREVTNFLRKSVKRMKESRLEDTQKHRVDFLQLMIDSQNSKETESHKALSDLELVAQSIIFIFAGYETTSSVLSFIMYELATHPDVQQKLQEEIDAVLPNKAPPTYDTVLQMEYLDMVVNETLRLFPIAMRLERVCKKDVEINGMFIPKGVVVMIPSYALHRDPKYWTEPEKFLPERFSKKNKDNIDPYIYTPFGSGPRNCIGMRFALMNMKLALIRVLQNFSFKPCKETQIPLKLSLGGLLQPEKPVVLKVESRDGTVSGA
T2 sequence (P10635 whole entry): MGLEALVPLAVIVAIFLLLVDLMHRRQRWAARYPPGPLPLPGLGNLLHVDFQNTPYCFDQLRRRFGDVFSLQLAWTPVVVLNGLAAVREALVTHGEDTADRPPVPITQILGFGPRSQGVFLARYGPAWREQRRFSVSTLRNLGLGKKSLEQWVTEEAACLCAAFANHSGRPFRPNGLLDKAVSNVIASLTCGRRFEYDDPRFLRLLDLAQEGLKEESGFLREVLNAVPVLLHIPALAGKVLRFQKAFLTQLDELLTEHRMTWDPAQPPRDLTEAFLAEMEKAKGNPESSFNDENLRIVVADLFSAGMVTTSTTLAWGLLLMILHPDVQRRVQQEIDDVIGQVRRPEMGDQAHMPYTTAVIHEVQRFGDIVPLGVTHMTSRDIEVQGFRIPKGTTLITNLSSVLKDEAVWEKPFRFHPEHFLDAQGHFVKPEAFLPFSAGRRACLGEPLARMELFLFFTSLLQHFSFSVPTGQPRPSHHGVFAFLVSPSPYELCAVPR

Compound	pIC50 (human TLR8)	inhibition at 10 min, 10 µM (CYP2D6)	inhibition at 5 min, 10 µM (CYP3A4)
C[C@@H]1CN(c2ccc(C#N)c3ncccc23)C[C@H](CN2CCN(c3ccc([C@@H]4CNCCO4)cc3)CC2)O1 [Example 19, 5-[(2R,6S)-2-methyl-6-[[4-[4-[(2R)-morpholin-2-yl]phenyl]piperazin-1-yl]methyl]morpholin-4-yl]quinoline-8-carbonitrile]	7.92	0.5%	12.5%
C[C@@H]1CN(c2ccc(C#N)c3ncccc23)C[C@H](CN2CCN(c3cc(N4CCN(C)CC4)ncn3)CC2)O1 [Example 21, 5-[(2R,6S)-2-methyl-6-[[4-[6-(4-methylpiperazin-1-yl)pyrimidin-4-yl]piperazin-1-yl]methyl]morpholin-4-yl]quinoline-8-carbonitrile]	8.00	2.5%	-1.5%
C[C@@H]1CN(c2ccc(C#N)c3ncccc23)C[C@H](CN2CCN(c3ccnc(N4CCN(C)CC4)n3)CC2)O1 [Example 22, 5-((2R,6S)-2-methyl-6-((4-(2-(4-methylpiperazin-1-yl)pyrimidin-4-yl)piperazin-1-yl)methyl)morpholino)quinoline-8-carbonitrile]	8.52	2%	-16%
C[C@@H]1CN(c2ccc(C#N)c3ncccc23)C[C@H](CN2CCN(c3ccnc(N[C@H]4CNC[C@H]4F)n3)CC2)O1 [Example 24, 5-[(2S,6R)-2-[[4-[2-[[(3S,4R)-4-fluoropyrrolidin-3-yl]amino]pyrimidin-4-yl]piperazin-1-yl]methyl]-6-methyl-morpholin-4-yl]quinoline-8-carbonitrile]	7.96	6%	4%
C[C@@H]1CN(c2ccc(C#N)c3ncccc23)C[C@H](CN2CCN(c3ccnc(N4CCNCC(O)C4)n3)CC2)O1 (stereo partly drawn) [Example 25, 5-[(2S,6R)-2-[[4-[2-(6-hydroxy-1,4-diazepan-1-yl)pyrimidin-4-yl]piperazin-1-yl]methyl]-6-methyl-morpholin-4-yl]quinoline-8-carbonitrile]	8.15	5.5%	-4%
C[C@@H]1CN(c2ccc(C#N)c3ncccc23)C[C@H](CN2CCN(c3ccnc(N4CCN[C@@H](CO)C4)n3)CC2)O1 [Example 29, 5-[(2S,6R)-2-[[4-[2-[(3R)-3-(hydroxymethyl)piperazin-1-yl]pyrimidin-4-yl]piperazin-1-yl]methyl]-6-methyl-morpholin-4-yl]quinoline-8-carbonitrile]	8.00	8.5%	-5.5%
C[C@@H]1CN(c2ccc(C#N)c3ncccc23)C[C@H](CN2CCN(c3cccc(NC4CNC4)n3)CC2)O1 [Example 38]	7.96	20.5%	20%
COC1CN(c2ccc(N3CCN(C[C@H]4CN(c5ccc(C#N)c6ncccc56)C[C@@H](C)O4)CC3)cn2)CC1N (stereo partly drawn) [Example 43, 5-[(2S,6R)-2-[[4-[6-(3-amino-4-methoxy-pyrrolidin-1-yl)-3-pyridyl]piperazin-1-yl]methyl]-6-methyl-morpholin-4-yl]quinoline-8-carbonitrile]	7.96	-11%	16%
C[C@@H]1CN(c2ccc(C#N)c3ncccc23)C[C@H](CN2CCN(c3nc(N4CCNCC4)ncc3F)CC2)O1 [Example 45, 5-[(2S,6R)-2-[[4-(5-fluoro-2-piperazin-1-yl-pyrimidin-4-yl)piperazin-1-yl]methyl]-6-methyl-morpholin-4-yl]quinoline-8-carbonitrile]	8.40	5%	-5%
C[C@@H]1CN(c2ccc(C#N)n3ncc(F)c23)C[C@H](CN2CCN(c3ccc(N[C@H]4CNC[C@H]4F)nc3)CC2)O1 [Example 167, 3-fluoro-4-[(2S,6R)-2-[[4-[6-[[(3S,4R)-4-fluoropyrrolidin-3-yl]amino]-3-pyridyl]piperazin-1-yl]methyl]-6-methyl-morpholin-4-yl]pyrazolo[1,5-a]pyridine-7-carbonitrile]	7.47	11.5%	44%
C[C@@H]1CN(c2ccc(C#N)n3ncc(F)c23)C[C@H](CN2CCN(c3ccc(N4C[C@H]5NCCO[C@@H]5C4)nc3)CC2)O1 [Example 168, 4-[(2S,6R)-2-[[4-[6-[(4aR,7aR)-3,4,4a,5,7,7a-hexahydro-2H-pyrrolo[3,4-b][1,4]oxazin-6-yl]-3-pyridyl]piperazin-1-yl]methyl]-6-methyl-morpholin-4-yl]-3-fluoro-pyrazolo[1,5-a]pyridine-7-carbonitrile]	7.24	1.5%	11%
C[C@@H]1CN(c2ccc(C#N)n3ncc(F)c23)C[C@H](CN2CCN(c3ccc(N4CC5(CN(C)C5)C4)nc3)CC2)O1 [Example 170, 3-fluoro-4-[(2R,6S)-2-methyl-6-[[4-[6-(6-methyl-2,6-diazaspiro[3.3]heptan-2-yl)-3-pyridyl]piperazin-1-yl]methyl]morpholin-4-yl]pyrazolo[1,5-a]pyridine-7-carbonitrile]	7.89	0%	-7%
